From patent US20030236302A1, “Synthetic derivatives” (priority 2002, published 2003)

What was measured:
[1] = test system: Human IL-12 p70 (heterodimer); experiment: IL-12 production in IFN-primed, SAC-stimulated THP-1 cells (ELISA); format: cell-based; conditions: THP-1 cells primed by IFNα (100 U/mL) 22 h, stimulated with 0.025% SAC, supernatants after 24 h
Experimental: (§1) Human monocytic THP-1 cells were primed by IFNα (100 U/mL) for 22 h and then stimulated with 0.025% SAC in the presence of different concentrations of a test compound. The test compounds were prepared in DMSO and the final DMSO concentration was adjusted to 0.25% in all cell cultures, including the compound-free control. Supernatants from the cultures were removed after 24 h, and assayed for productions of IL-12 and […]. Cell viability was assessed using the bioreduction of MTS [3-(4,5-dimethylthiazol-2-yl)-5-(3-carboxymethoxyphenyl)-2-(4-sulfophenyl)-2H-tetrazolium] (Promega, Madison, Wis.), with cell survival estimated as the ratio of the absorbance in compound-treated groups versus compound-free control. Human IL-12 p70 (heterodimer) and TNFα were assayed using ELISA kit from Endogen (Cambridge, Mass.), according to the manufacturer's instructions.

TNFα = TNFα production in IFN-primed, SAC-stimulated THP-1 cells (ELISA); format: cell-based, Human; conditions: THP-1 cells primed by IFNα (100 U/mL) 22 h, stimulated with 0.025% SAC, supernatants after 24 h
Experimental: as §1

[2] = Cell viability by MTS bioreduction; format: cell-based, Human; conditions: human, THP-1 monocytic cells (IFNα-primed, SAC-stimulated), THP-1 cells, survival vs compound-free control, read-out: CC50 (μM) Cell Toxicity
Experimental: as §1

[3] = test system: Human monocytic THP-1 cells; experiment: Cell viability by MTS bioreduction; format: cell-based; conditions: survival vs compound-free control, read-out: CC50 (μM) Cell Toxicity
Experimental: as §1

Row | Structure (SMILES) | IC50 ([1]; Homo sapiens) [µM] | IC50 (TNFα; Homo sapiens) [µM] | IC50 [1] [µM] | IC50 (TNFα) [µM] | CC50 at 24 h [2] [µM] | CC50 [3] [µM]
1 | COC1=CC(=O)O[C@@H](CCc2cccnc2)C1 [Compound 21, 4-Methoxy-6-(2-pyridin-3-yl-ethyl)-5,6-dihydro-pyran-2-one] | 100 | 80 | – | – | > 100 | –
2 | COC(=O)c1ccc(CCC2CC(OC)=CC(=O)O2)cc1 (stereo not shown) [Compound 16, 4-[2-(4-methoxy-6-oxo-3,6-dihydro-2H-pyran-2-yl)-ethyl]-benzoic acid methyl ester] | 80 | 80 | – | – | > 100 | –
3 | COC1=CC(=O)OC(/C=C/c2ccc(F)c(F)c2F)C1 (stereo not shown) [Compound 15] | 90 | 60 | – | – | > 100 | –
4 | COC1=CC(=O)OC(C=Cc2ccc(C#N)cc2)C1 (stereo not shown) [Compound 13, 6-[2-(4-cyano-phenyl)-vinyl]-4-methoxy-5,6-dihydro-pyan-2-one] | – | – | 80 | – | – | > 100
5 | CCOC1=CC(=O)O[C@@H](CCc2ccccc2)C1 [Compound 20, (S)-4-Ethoxy-6-phenethyl-5,6-dihydro-pyran-2-one] | 80 | 100 | – | – | > 100 | –
6 | COC1=CC(=O)OC(CCc2ccc[nH]2)C1 (stereo not shown) [Compound 6, 4-Methoxy-6-[2-(1H-pyrrol-2-yl)-ethyl]-5,6-dihydro-pyran-2-one] | 70 | 100 | – | – | > 100 | –
7 | COC1=CC(=O)OC(CCc2ccc(F)c(F)c2)C1 (stereo not shown) [Compound 17, 6-[2-(3,4-difluoro-phenyl)-ethyl]-4-methoxy-5,6-dihydro-pyan-2-one] | – | – | 80 | 80 | – | > 100
8 | COc1cc(CC[C@H]2CC=CC(=O)O2)cc(OC)c1OC [Compound 12, S-6-[2-(3,4,5-trimethoxylphenyl)-ethyl]-5,6-dihydro-pyran-2-one] | 10 | 25 | – | – | 100 | –
9 | O=C1CC(=O)O[C@@H](CCc2ccccc2)C1 [Compound 1, S-(+)-6-Phenethyl-dihydro-pyran-2,4-dione] | 30 | 40 | – | – | > 100 | –
10 | COC1=CC(=O)O[C@@H](CCc2cccc(F)c2)C1 [Compound 8, (S)-6-[2-(3-Fluoro-phenyl)-ethyl]-4-methoxy-5,6-dihydro-pyran-2-one] | 65 | 70 | – | – | > 100 | –
11 | COC1=CC(=O)OC(CCc2ccc(F)cc2)C1 (stereo not shown) [Compound 18, 6-[2-(4-fluoro-phenyl)-ethyl]-4-methoxy-5,6-dihydro-pyan-2-one] | – | – | 80 | 70 | – | > 100
12 | COC1=CC(=O)O[C@@H](CCc2ccccc2F)C1 [Compound 7, (S)-6-[2-(2-Fluoro-phenyl)-ethyl]-4-methoxy-5,6-dihydro-pyran-2-one] | 38 | 62 | – | – | > 100 | –
13 | O=C1C=CC[C@H](CCc2ccccc2)O1 [Compound 10, (S)-6-Phenethyl-5,6-dihydro-pyran-2-one] | 10 | 13 | – | – | 100 | –
14 | CC(C)OC1=CC(=O)O[C@@H](CCc2ccccc2)C1 [Compound 19, S-(+)-4-isopropoxy-6-phenethyl-5,6-dihydro-pyran-2-one] | 70 | 70 | – | – | > 100 | –
15 | COC1=CC(=O)O[C@@H](CCc2ccc(F)cc2)C1 [Compound 9, (S)-6-[2-(4-Fluoro-phenyl)-ethyl]-4-methoxy-5,6-dihydro-pyran-2-one] | 86 | 100 | – | – | > 100 | –

Continued, in another order:

Row | IC50 ([1]; Homo sapiens) [µM] | IC50 (TNFα; Homo sapiens) [µM] | IC50 [1] [µM] | IC50 (TNFα) [µM] | Structure (SMILES) | CC50 at 24 h [2] [µM] | CC50 [3] [µM]
16 | 40 | 20 | – | – | O=C1CC(=O)O[C@@H](CCc2cccc(F)c2)C1 [Compound 4, (S)-6-[2-(3-Fluoro-phenyl)-ethyl]-dihydro-pyran-2,4-dione] | > 100 | –
17 | 10 | 5 | – | – | O=C1C=CC[C@H](CCc2cccc(F)c2)O1 [Compound 11, S-6-[2-(3-Fluoro-phenyl)-ethyl]-5,6-dihydro-pyran-2-one] | 100 | –
18 | 80 | 100 | – | – | O=C1C=C(O)CC(/C=C/c2cccnc2)O1 (stereo not shown) [Compound 5, 6-(2-pyridin-3-yl-vinyl)-dihydro-pyran-2,4-one] | > 100 | –
19 | 70 | 70 | – | – | COC1=CC(=O)OC(/C=C/c2ccc(F)c(F)c2)C1 (stereo not shown) [Compound 14, 6-[2-(3,4-difluoro-phenyl)-vinyl]-4-methoxy-5,6-dihydro-pyan-2-one] | > 100 | –
20 | 30 | 30 | – | – | O=C1CC(=O)O[C@@H](CCc2ccc(F)cc2)C1 [Compound 2, 6-[2-(4-Fluoro-phenyl)-ethyl]-dihydro-pyran-2,4-dione] | > 100 | –
21 | 70 | 40 | – | – | O=C1CC(=O)O[C@@H](CCc2ccccc2F)C1 [Compound 3, (S)-6-[2-(2-fluoro-phenyl)-ethyl]-dihydro-pyran-2,4-dione] | – | –
